Entries after “also recorded” stand apart in the source; their conditions may differ.
Key:
[1] = system: RKO human colon cancer cell line; experiment: Trypan blue staining apoptosis assay; type: cell-based; conditions: RKO (p53 WT/LIG4 MT); 25 μM and 50 μM, 48 hours
Description: (§1) In order to analyze the degree of apoptosis of Compound A, which is a novel PARP/Tankyrase simultaneous inhibitor according to a p53 genotype and LIG4 genotype, the present inventors treated a novel PARP/Tankyrase simultaneous inhibitor, Compound A, and a competitive drug PARP inhibitor, olaparib, in RKO, LoVo human colon cancer cell line in which the p53 gene is a normal type and the LIG4 gene is a mutant type and an SW620 human colon cancer cell line in which the p53 gene is a mutant type and the LIG4 gene is a normal type. The number of cells was measured by trypan blue staining assay to confirm the degree of apoptosis. The conditions and methods of the experiment were as follows: RKO, LoVo human colon cancer cell line in which the p53 gene is a normal type and the LIG4 gene is a mutant type and the SW620 human colon cancer cell line in which the p53 gene is a mutant type and the LIG4 gene is a normal type were cultured in RPMI1640 (10% FBS, 1% penicillin/streptomycin) and cultured in a 60 mm plate at 1×10^5 per well for 24 hours at 37° C. Compound A, which is a novel PARP/Tankyrase simultaneous inhibitor, and olaparib, which is a competitive drug PARP inhibitor, were treated with each of 25 μM and 50 μM and were cultured for 48 hours. The number of cells was measured by trypan blue staining assay to confirm the degree of apoptosis.
In order to analyze the degree of apoptosis of Compound A, which is a novel PARP/Tankyrase simultaneous inhibitor, according to the p53 genotype and an LIG4 genotype, the present inventors treated Compounds A and B, which are novel PARP/Tankyrase simultaneous inhibitors, in the RKO and LoVo human colon cancer cell lines in which the p53 gene is a normal type and an LIG4 gene is a mutant type. Then, the number of cells was measured by trypan blue staining assay to confirm the degree of apoptosis. The RKO and LoVo human colon cancer cell lines were cultured under the same conditions as in Example 5. Compounds A and B, which are novel PARP/Tankyrase simultaneous inhibitors, were treated with 25 μM and 50 μM, respectively, for 48 hours. After 48 hours of culturing, the number of cells was measured by trypan blue staining assay to confirm the degree of apoptosis. […]

[2] = system: SW620 human colon cancer cell line; experiment: Trypan blue staining apoptosis assay; type: cell-based; conditions: SW620 (p53 MT/LIG4 WT); 25 μM and 50 μM, 48 hours
Description: as §1
(§2) In order to analyze the degree of apoptosis of Compounds A and B, which are novel PARP/Tankyrase simultaneous inhibitors, in a cell line RKO in which the p53 genotype is a normal type and an LIG4 genotype is a mutant type, a cell line SW620 in which the p53 genotype is a mutant type and an LIG4 genotype is a normal type, a cell line HCT8 in which the p53 genotype and an LIG4 genotype are normal, and a cell line KM12C in which the p53 genotype and an LIG4 genotype are mutant, the human colon cancer cell lines of RKO, HCT, SW620 and KM12C with different p53 genotype and LIG4 genotype were cultured in RPMI1640 (10% FBS, 1% penicillin/streptomycin) and cultured in a 60 mm plate at 1×10^5 per well for 24 hours at 37° C. Compounds A and B, which are novel PARP/Tankyrase simultaneous inhibitors, and olaparib, which is a competitive drug PARP inhibitor, and NVP-TNKS656, which is a Tankyrase inhibitor, were treated with each of 25 μM and 50 μM. After 48 hours of culturing, the number of cells was measured by trypan blue staining assay to confirm the degree of apoptosis.

[3] = system: HCT8 human colon cancer cell line; experiment: Trypan blue staining apoptosis assay; type: cell-based; conditions: HCT8 (p53 WT/LIG4 WT); 25 μM and 50 μM, 48 hours
Description: as §2

[4] = system: KM12C human colon cancer cell line; experiment: Trypan blue staining apoptosis assay; type: cell-based; conditions: KM12C (p53 MT/LIG4 MT); 25 μM and 50 μM, 48 hours
Description: as §2

[5] = system: LoVo human colon cancer cell line; experiment: Trypan blue staining apoptosis assay; type: cell-based; conditions: LoVo (p53 WT/LIG4 MT); 25 μM and 50 μM, 48 hours
Description: as §1
In order to analyze the degree of apoptosis of Compound A, which is a novel PARP/Tankyrase simultaneous inhibitor, according to the p53 genotype and an LIG4 genotype, the present inventors treated Compounds A and B, which are novel PARP/Tankyrase simultaneous inhibitors, in the RKO and LoVo human colon cancer cell lines in which the p53 gene is a normal type and an LIG4 gene is a mutant type. Then, the number of cells was measured by trypan blue staining assay to confirm the degree of apoptosis. The RKO and LoVo human colon cancer cell lines were cultured under the same conditions as in Example 5. […] After 48 hours of culturing, the number of cells was measured by trypan blue staining assay to confirm the degree of apoptosis.

[6] = system: KM12C human colon cancer cell line; experiment: Xenograft tumor inhibition; type: in vivo, nude mouse (BALB/c-nude); conditions: KM12C (p53 MT/LIG4 MT) xenograft, orally 25 mpk and 50 mpk daily
Description: (§3) In order to analyze the tumor inhibition effect on Compound A, which is a novel PARP/Tankyrase simultaneous inhibitor, in an in vivo animal model when a p53 genotype and an LIG4 genotype are mutant types, the present inventors transplanted the KM12C human colon cancer cell line in which a p53 genotype and an LIG4 genotype are mutant types into a 6-week-old nude mouse (BALB/c-nude, purchased from the central experimental animal) and administered with Compound A, which is a novel PARP/Tankyrase simultaneous inhibitor, and olaparib, which is a competitive drug PARP inhibitor. Then, the size of tumor was measured to confirm the degree of tumor inhibition effect. The conditions and methods of the experiment were as follows: KM12C human colon cancer cell line in which a p53 genotype and an LIG4 genotype are mutant types was cultured in RPMI1640 (10% FBS, 1% penicillin/streptomycin). When the size of the tumor reached 100 mm^3 after being transplanted into a nude mouse per 1×10^7, Compound A, which is a novel PARP/Tankyrase simultaneous inhibitor, and olaparib, which is a competitive drug PARP inhibitor, were orally administered at 25 mpk and 50 mpk daily for a total of 18 days. The size of a tumor was measured every three days. After the completion of drug administration, the tumors were harvested and weighed.
as §3, with “on Compound B, which is” for “on Compound A, which is”, “with Compound B, which is” for “with Compound A, which is”, “PARP/Tankyrase simultaneous inhibitor. Then,” for “PARP/Tankyrase simultaneous inhibitor, and olaparib, which is a competitive drug PARP inhibitor. Then,”, “1×10^7, Compound B, which is” for “1×10^7, Compound A, which is”, “simultaneous inhibitor, was orally administered” for “simultaneous inhibitor, and olaparib, which is a competitive drug PARP inhibitor, were orally administered”, “total of 15 days. The” for “total of 18 days. The”

| SMILES | degree of apoptosis (trypan blue cell count) [1] | degree of apoptosis (trypan blue cell count) [2] | degree of apoptosis (trypan blue cell count) [3] | degree of apoptosis (trypan blue cell count) [4] | degree of apoptosis (trypan blue cell count) [5] | tumor size ([6]; 18 days) | tumor weight ([6]; 18 days) | tumor size ([6]; 15 days) | tumor weight ([6]; 15 days) |
| --- | --- | --- | --- | --- | --- | --- | --- | --- | --- |
| O=C(c1cc(Cc2n[nH]c(=O)c3ccccc23)ccc1F)N1CCN(C(=O)C2CC2)CC1 [olaparib, reference compound] | no apoptosis effect was shown; also recorded: no change in apoptosis | low apoptosis effect; also recorded: No apoptosis occurred | No apoptosis occurred | No apoptosis occurred | no apoptosis effect was shown | no change | no change |  |  |
| CCOc1cc(CN(C)C)cc2[nH]c(=O)c3c(c12)NCCC3 [Compound A, 8-[(dimethylamino)methyl]-10-ethoxy-1,2,3,4-tetrahydrobenzo[h][1,6]naphthyridin-5(6H)-one] | apoptosis was induced; also recorded: possible to observe the apoptosis | low apoptosis effect; also recorded: No apoptosis occurred | No apoptosis occurred | No apoptosis occurred | apoptosis was induced | no change | no change |  |  |
| N#Cc1ccc(N2CCN(Cc3ccc4c5c(c(=O)[nH]c4c3)CCCN5)CC2)nc1 [Compound B, 6-{4-[(5-oxo-1,2,3,4,5,6-hexahydrobenzo[h][1,6]naphthyridin-8-yl)methyl]piperazin-1-yl}nicotinonitrile] | apoptosis effect is high by virtue of Compound B as compared to Compound A; also recorded: possible to observe the apoptosis | No apoptosis occurred | No apoptosis occurred | No apoptosis occurred | apoptosis effect is high by virtue of Compound B as compared to Compound A |  |  | no change | no change |

Source: patent publication US10683553B2, “Method for determining sensitivity to simultaneous inhibitor against PARP and Tankyrase” (THE ASAN FOUNDATION, priority 2015, dated 2020)
